Data reported in patent US20220016205A1, “METHODS OF OVERCOMING RESISTANCE TO IMMUNE CHECKPOINT INHIBITORS” (Board of Regents, The University of Texas System, priority 2018, published 2022).

Columns and labels:
RAW 264.7 cells [1] = assay: qPCR in RAW 264.7 cells co-cultured with 344SQR cells (transwell) with follistatin or K02288; type: cell-based, murine; conditions: 344SQR co-culture plus K02288 compared with 344SQR only (FIG. 3E)
Excerpt: (§1) Quantitative polymerase chain reaction (qPCR). Total RNA was isolated from cells and tumors with Triazol (Life Technologies) according to the manufacturer's protocol. For studies of BMP7, p38α, IL-1α, IL-1β, TNF-α, RANTES, IL-2, and IFN-γ expression, mRNA was retrotranscribed with the iScript™ gDNA Clear cDNA Synthesis Kit (BioRad) and analyzed by qPCR using SYBR Green (Life Technologies) with specific primers according to the manufacturer's protocol. The comparative Ct method was used to calculate the relative abundance of mRNAs compared with ACTB (beta-actin) expression for cancer cells or CD45 expression for immune cells.
Co-culture experiments and treatments. Viable cells were counted with a hemocytometer (0.4% Trypan blue solution) and diluted to 40,000 cells per well in 24-wells plates. Cells from 344SQP, 344SQR, 344SQ ctrl, or 344SQ-shBMP7 tumors were seeded at the top inserts (24-mm Transwell with 0.4-μm pore polycarbonate membrane insert, Sigma-Aldrich), and RAW 264.7 or CD4^+ T cells were seeded at the bottom of the transwell system. […] RNA was then isolated from RAW 264.7 or CD4^+ T cells and analyzed for p38α, IL-1α, IL-1β, TNF-α, RANTES, IL-2 and IFN-γ expression with qPCR. […]

peritoneal macrophages [2] = assay: qPCR in peritoneal macrophages co-cultured with 344SQR cells (transwell) with follistatin or K02288; type: cell-based, mouse; conditions: 344SQR co-culture plus K02288 compared with 344SQR only (FIG. 3F)
T lymphocytes = conditions: Matsuda et al., 1998; cited from earlier work
T-cell = conditions: Crawley et al., 1997; cited from earlier work
344SQR shBMP7 tumors = assay: Tumor growth, survival and TIL flow cytometry of mice with 344SQR shBMP7 (BMP7-knockdown) tumors treated with checkpoint antibodies; type: in vivo, 129Sv/Ev mice; conditions: antibody 10 mg/kg twice a week for 2 weeks in combination with BMP7 knockdown, compared with control (FIGS. 5A, 5I, 5J)
Procedure: In vivo studies. All mouse studies were approved by the Institutional Animal Care and Use Committee (IACUC) of The University of Texas MD Anderson Cancer Center before their initiation; animal care was provided according to IACUC standards, and all mice had been bred and were maintained in our own specific pathogen-free mouse colony. For RRBS, RPPA and TILs studies, primary tumors were established by subcutaneous injection of 344SQP or 344SQR cells (0.5×10^6 in 100 μL of sterile phosphate buffered saline [PBS]) into the leg of syngeneic 129Sv/Ev mice (female, 12-16 weeks old). Mice were then given intraperitoneal injections of anti-PD1 or control IgG antibodies (10 mg/kg) (Bio X cell), starting on day 4 after tumor cell inoculation and continuing twice per week for a total of 4 doses. At 24 hours after the last anti-PD1 treatment, tumor tissues were collected for DNA (2 mice/group) and protein isolation (2 or 3 mice/group). For TILs isolation, tumor tissues (3 mice/group) were collected a week after the last treatment with anti-PD1. […] Tumors were measured with calipers three times per week and recorded as tumor volume (in mm^3)=width^2×length/2. […] Mouse survival rates were analyzed by using the Kaplan-Meier method and compared with log-rank tests.
Tissue processing and flow cytometry. […] All samples were analyzed with an LSRII flow cytometer and FlowJo software (version 10.0.7). […]

RAW 264.7 cells [3] = assay: qPCR of p38α, IL-1α, IL-1β, TNF-α, RANTES in RAW 264.7 cells treated with BMP7 or BMP7 plus follistatin; type: cell-based, murine; conditions: BMP7 compared to untreated control, 24 or 48 hours (FIG. 3G)
Excerpt: as §1
(§2) Co-culture experiments and treatments. Viable cells were counted with a hemocytometer (0.4% Trypan blue solution) and diluted to 40,000 cells per well in 24-wells plates. Cells from 344SQP, 344SQR, 344SQ ctrl, or 344SQ-shBMP7 tumors were seeded at the top inserts (24-mm Transwell with 0.4-μm pore polycarbonate membrane insert, Sigma-Aldrich), and RAW 264.7 or CD4^+ T cells were seeded at the bottom of the transwell system. […] RNA was then isolated from RAW 264.7 or CD4^+ T cells and analyzed for p38α, IL-1α, IL-1β, TNF-α, RANTES, IL-2 and IFN-γ expression with qPCR.

peritoneal macrophages [4] = assay: qPCR of p38α, IL-1α, IL-1β, TNF-α, RANTES in peritoneal macrophages treated with BMP7 or BMP7 plus follistatin; type: cell-based, mouse; conditions: BMP7 compared to untreated control (FIG. 3G)
Excerpt: as §1, §2

CD4^+ T cells = assay: qPCR of p38α, IFN-γ, IL-2 in activated CD4+ T cells treated with BMP7 or BMP7 plus follistatin; type: cell-based, mouse
Excerpt: as §1
Co-culture experiments and treatments. Viable cells were counted with a hemocytometer (0.4% Trypan blue solution) and diluted to 40,000 cells per well in 24-wells plates. Cells from 344SQP, 344SQR, 344SQ ctrl, or 344SQ-shBMP7 tumors were seeded at the top inserts (24-mm Transwell with 0.4-μm pore polycarbonate membrane insert, Sigma-Aldrich), and RAW 264.7 or CD4^+ T cells were seeded at the bottom of the transwell system. CD4^+ T cells were isolated from splenocytes by using Dynabeads Untouched Mouse CD4 Cells Kit (Thermo Fisher Scientific—Life Technologies, Catalog #11416D) and activated with LEAF purified anti-mouse CD3c antibody (5 μg/mL) and LEAF purified anti-mouse CD28 antibody (1 μg/mL) (Biolegend). […] RNA was then isolated from RAW 264.7 or CD4^+ T cells and analyzed for p38α, IL-1α, IL-1β, TNF-α, RANTES, IL-2 and IFN-γ expression with qPCR.
Next, CD4^+ T cells were co-cultured with 344SQP or 344SQR cells, and 344SQR ctrl or 344SQR shBMP7 cells, and the expression of p38α, IFN-γ, and IL-2 analyzed. […] To confirm that these findings depended on BMP7 and not on some other secreted molecule, CD4^+ T cells were treated with BMP7 with or without follistatin and p38α, IFN-γ, and IL-2 expression evaluated. […]

RAW 264.7 cells [5] = assay: p38a silencing with siRNAs in RAW 264.7 cells, qPCR / expression analysis; type: cell-based, murine; conditions: BMP7 treatment of cells treated with siRNAs targeting p38a (FIG. 3K)
Excerpt: as §1
Transfection siRNA. siRNA targeting p38a (Life Technologies, Cat #4390771) and its respective negative-control negative control (Life Technologies, Cat #4390843) were reverse-transfected into RAW 264.7 macrophages with Lipofectamine 2000 (Life Technologies) to a final concentration of […].

COc1cc(-c2cc(-c3cccc(O)c3)cnc2N)cc(OC)c1OC [K02288, reference compound]
expression of p38a and p38α-regulated cytokines and chemokines (RAW 264.7 cells [1]): lower expression
expression of p38a and p38α-regulated cytokines and chemokines (peritoneal macrophages [2]): lower expression

C[S+]([O-])c1ccc(-c2nc(-c3ccncc3)c(-c3ccc(F)cc3)[nH]2)cc1 (stereo not shown) [SB203580]
transcriptional activation of the IL-2 promoter (T lymphocytes): suppressed the transcriptional activation
T-cell proliferation in response to IL-2 (T-cell): suppressed T-cell proliferation

anti-PDL1: anti-PDL1 (Durvalumab, Pharmacy MD Anderson)
survival (344SQR shBMP7 tumors): increased survival

B1: BMP7: bone morphogenetic protein (BMP)-7, secreted protein of the TGF-β superfamily (R&D Systems, Catalog #5666-BP-010) (protein, UniProt P18075 293-431, looked up)
Bone morphogenetic protein 7: STGSKQRSQNRSKTPKNQEALRMANVAENSSSDQRQACKKHELYVSFRDLGWQDWIIAPEGYAAYYCEGECAFPLNSYMNATNHAIVQTLVHFINPETVPKPCCAPTQLNAISVLYFDDSSNVILKKYRNMVVRACGCH
expression of p38a and p38α-regulated cytokines and chemokines (RAW 264.7 cells [3]): lower expression
expression of p38a and p38α-regulated cytokines and chemokines (peritoneal macrophages [4]): lower expression
p38α expression (CD4^+ T cells; effect of BMP7): led to changes
IFN-γ and IL-2 expression (CD4^+ T cells; effect of BMP7, via p38α): decreased
expression of TNF-α, IL1-β, and CD206 (RAW 264.7 cells [5]): did not alter
